Data set [1] concerns MCF7. The experiment in a line: Antiproliferative activity against human MCF7 cells assessed as cell growth inhibition measured after 48 hrs by CCK8 assay. As to conditions: MCF7, 48 h. In kind it is functional, cell-based.
Data set [2] deals with T1, Protein deacetylase HDAC6 (Homo sapiens) (UniProt Q9UBN7).
T1 sequence (whole entry): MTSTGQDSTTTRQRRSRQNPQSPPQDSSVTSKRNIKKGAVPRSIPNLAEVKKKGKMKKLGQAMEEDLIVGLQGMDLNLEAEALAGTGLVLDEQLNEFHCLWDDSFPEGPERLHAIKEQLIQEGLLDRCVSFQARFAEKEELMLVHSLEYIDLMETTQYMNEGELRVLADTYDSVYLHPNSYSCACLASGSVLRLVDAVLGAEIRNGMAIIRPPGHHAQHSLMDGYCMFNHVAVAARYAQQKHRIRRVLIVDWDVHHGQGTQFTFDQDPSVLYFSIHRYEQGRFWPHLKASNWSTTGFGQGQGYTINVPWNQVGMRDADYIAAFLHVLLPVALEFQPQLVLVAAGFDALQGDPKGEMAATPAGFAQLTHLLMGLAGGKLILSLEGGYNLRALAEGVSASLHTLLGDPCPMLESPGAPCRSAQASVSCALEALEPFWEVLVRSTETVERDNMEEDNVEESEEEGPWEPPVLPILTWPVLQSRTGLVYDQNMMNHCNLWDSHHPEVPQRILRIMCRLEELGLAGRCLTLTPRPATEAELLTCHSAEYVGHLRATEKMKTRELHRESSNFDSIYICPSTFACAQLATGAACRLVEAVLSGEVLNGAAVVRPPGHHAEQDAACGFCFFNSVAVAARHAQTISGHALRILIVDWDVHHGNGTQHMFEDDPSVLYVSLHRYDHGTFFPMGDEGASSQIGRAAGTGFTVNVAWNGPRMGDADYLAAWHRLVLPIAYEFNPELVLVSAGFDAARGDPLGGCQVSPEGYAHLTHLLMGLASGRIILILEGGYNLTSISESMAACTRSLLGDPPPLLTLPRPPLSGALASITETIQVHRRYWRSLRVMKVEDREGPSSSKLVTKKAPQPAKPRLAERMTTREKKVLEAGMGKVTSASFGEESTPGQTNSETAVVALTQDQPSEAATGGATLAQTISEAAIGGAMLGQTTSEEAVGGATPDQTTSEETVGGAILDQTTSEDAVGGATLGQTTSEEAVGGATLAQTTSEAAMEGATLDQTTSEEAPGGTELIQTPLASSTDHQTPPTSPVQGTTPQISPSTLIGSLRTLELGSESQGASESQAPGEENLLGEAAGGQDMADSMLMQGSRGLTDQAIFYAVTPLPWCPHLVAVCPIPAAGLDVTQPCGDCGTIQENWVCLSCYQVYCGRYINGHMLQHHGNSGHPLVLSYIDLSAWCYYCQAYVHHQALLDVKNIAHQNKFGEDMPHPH
Nature of the data set: Inhibition of HDAC6 in human A549 cells assessed as increase in alpha tubulin acetylation at 10 uM incubated for 24 hrs followed by compound washout by DAPI staining based immunofluorescence assay. In kind it is cell-based.

Data set [3] deals with T2, Cyclin-dependent kinase 2/4/6 (Homo sapiens) (UniProt P11802+P24941+Q00534). The experiment in a line: Inhibition of CDK2/4/6 in human A549 cells assessed as decrease in Rb phosphorylation measured after 48 hrs by Western blot analysis. In kind it is cell-based. Conditions: dose 1-10 µM. A general note: In western blotting, separated proteins are transferred to a membrane and probed.

Data set [4] deals with MCF7. The experiment in a line: Cycle arrest in human MCF7 cells assessed as increase in cell population at S phase measured after 24 hrs by propidium iodide/RNase staining based flow cytometry. In kind it is functional. Conditions: dose 2.5-10 µM. A general note: A flow cytometer gives signals particle by particle.
A further data set has as its system HeLa. The experiment in a line: Potency index, ratio of SAHA IC50 to test compound IC50 for antiproliferative activity against human HeLa cells assessed as cell growth inhibition measured after 48 hrs by CCK8 assay. In kind it is functional.
In data set [5] the test system is A549. The experiment in a line: Antitumor activity against human A549 cells xenografted in BALB/c nude mouse assessed as reduction in tumor size at 25 to 50 mg/kg, iv administered for 21 consecutive days. In kind it is functional, organism-based. Conditions: dose 25-50 mg/kg, time 21.0 day. In general terms: In xenograft studies the graft and the host belong to different species.

Data set [6] has as its target Protein deacetylase HDAC6 (Mus musculus) (UniProt Q9Z2V5). The experiment in a line: In vivo inhibition of HDAC6 in BALB/c nude mouse xenografted with human A549 cells assessed as increase in alpha tubulin acetylation at 25 to 50 mg/kg, iv administered for 21 consecutive days by immunohistochemical analysis. In kind it is functional, organism-based. As to conditions: dose 25-50 mg/kg, time 21.0 day.

The next data set has as its system K562. Nature of the data set: Cycle arrest in human K562 cells assessed as increase in cell population at S phase measured after 24 hrs by propidium iodide/RNase staining based flow cytometry. In kind it is functional. As to conditions: dose 2.5-10 µM.
Data set [7] deals with T1, Protein deacetylase HDAC6 (Homo sapiens). The experiment in a line: Inhibition of HDAC6 in human K562 cells assessed as accumulation of acetylation of H3 at 1 to 10 uM measured after 48 hrs by Western blot analysis. In kind it is cell-based. As to conditions: dose 1-10 µM.
Data set [8] can be described thus: Toxicity in BALB/c nude mouse xenografted with human A549 cells assessed as body weight loss at 25 to 50 mg/kg, iv administered for 21 consecutive days. In kind it is organism-based. As to conditions: in vivo, 504 h, dose 25-50 mg/kg, time 21 day.
The target of data set [9] is T2, Cyclin-dependent kinase 2/4/6 (Homo sapiens). Nature of the data set: Inhibition of CDK2/4/6 in human A549 cells assessed as decrease in Rb phosphorylation at 10 uM incubated for 24 hrs followed by compound washout by DAPI staining based immunofluorescence assay. In kind it is cell-based.
Data set [10] has as its system A549. Nature of the data set: Antitumor activity against human A549 cells xenografted in BALB/c nude mouse assessed as reduction in tumor weight at 0.75 to 1.5 mg, IT (intratumoral) administered for 21 consecutive days. In kind it is functional, cell-based. As to conditions: dose 0.75-1.5 mg, time 21.0 day.
In data set [11] the test system is A549. Nature of the data set: Cycle arrest in human A549 cells assessed as increase in cell population at S phase measured after 24 hrs by propidium iodide/RNase staining based flow cytometry. In kind it is functional. As to conditions: dose 2.5-10 µM.
The test system of data set [12] is A549. Nature of the data set: Antitumor activity against human A549 cells xenografted in BALB/c nude mouse assessed as tumor growth inhibition at 50 mg/kg, iv administered for 21 consecutive days relative to control. In kind it is functional. Conditions: 504 h, time 21 day, read-out: TGI.

We go through 1 compound from ChEMBL document CHEMBL4842385, “Indirubin Derivatives as Dual Inhibitors Targeting Cyclin-Dependent Kinase and Histone Deacetylase for Treating Cancer” (J Med Chem, 2021).

The source made the active and inactive calls. No cut-off for these calls is given here.

Protein deacetylase HDAC6 (Mus musculus), sequence (Q9Z2V5 whole entry): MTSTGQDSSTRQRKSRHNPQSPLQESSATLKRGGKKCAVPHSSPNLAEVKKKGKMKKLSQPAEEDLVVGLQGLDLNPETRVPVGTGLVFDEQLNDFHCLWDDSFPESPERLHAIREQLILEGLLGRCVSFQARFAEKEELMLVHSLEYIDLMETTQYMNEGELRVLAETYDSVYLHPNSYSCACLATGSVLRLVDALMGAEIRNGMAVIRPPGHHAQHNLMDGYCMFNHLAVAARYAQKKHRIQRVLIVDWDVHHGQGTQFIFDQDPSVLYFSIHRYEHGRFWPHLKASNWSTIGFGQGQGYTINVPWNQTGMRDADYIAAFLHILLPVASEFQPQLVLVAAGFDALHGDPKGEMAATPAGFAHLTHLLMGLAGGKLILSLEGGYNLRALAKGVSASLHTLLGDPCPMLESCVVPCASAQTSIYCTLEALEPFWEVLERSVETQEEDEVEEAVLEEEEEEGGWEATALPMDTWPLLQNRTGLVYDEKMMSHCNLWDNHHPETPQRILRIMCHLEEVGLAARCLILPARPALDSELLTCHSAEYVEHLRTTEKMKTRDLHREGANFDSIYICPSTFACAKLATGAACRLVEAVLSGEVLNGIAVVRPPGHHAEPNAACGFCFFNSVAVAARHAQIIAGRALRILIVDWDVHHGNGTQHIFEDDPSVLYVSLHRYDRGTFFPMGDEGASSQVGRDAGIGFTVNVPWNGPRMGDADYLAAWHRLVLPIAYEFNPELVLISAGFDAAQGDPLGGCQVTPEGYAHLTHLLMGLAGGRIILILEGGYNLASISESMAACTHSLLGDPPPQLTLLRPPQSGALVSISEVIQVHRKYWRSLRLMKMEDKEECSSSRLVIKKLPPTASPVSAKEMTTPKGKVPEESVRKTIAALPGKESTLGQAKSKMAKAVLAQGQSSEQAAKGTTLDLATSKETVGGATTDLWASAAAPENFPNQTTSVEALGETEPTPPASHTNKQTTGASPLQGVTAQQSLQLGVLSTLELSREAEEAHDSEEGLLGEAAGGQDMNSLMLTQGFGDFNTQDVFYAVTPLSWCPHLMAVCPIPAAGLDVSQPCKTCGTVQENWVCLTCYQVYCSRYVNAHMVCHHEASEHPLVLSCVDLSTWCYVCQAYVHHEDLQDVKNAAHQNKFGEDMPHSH

Take `O=C(CCCO/N=C1/C(=C2/C(=O)Nc3ccccc32)Nc2ccccc21)NO`: the IC50 (as a rule, the midpoint of a concentration-inhibition curve) in the data set with MCF7 [1] worked out at 2900 nM. The inhibition entry in data set [2], in data set [6] and in data set [9] was “Active” in each case. In data set [3], the inhibition result was “Dose-Dependent Effect”. Also, the Activity result was “Dose-Dependent Effect” with MCF7 [4], “Dose-Dependent Effect” with K562, “Non-Toxic” in [8] and “Dose-Dependent Effect” in the data set with A549 [11]. Moreover, the “Ratio IC50” value in the data set with HeLa was determined as 3. The outcome in the data set with A549 [5] and in the data set with A549 [10] was Active. In data set [7], the inhibition result is “inactive”. Further, the inhibition in vivo at 50 mg/kg in the data set on A549 [12] is 66.6%.
